Results: patent publication US8389573B2, “Glycyrrhetinic acid derivatives” (Wellington Laboratories Inc., priority 2006, dated 2013)

What was measured:
SW480 colon cancer cells = assay: Cell proliferation assay in SW480 cells; format: cell-based; settings: Homo sapiens, read-out: IC50, growth inhibition / cell proliferation
Protocol: (§1) Human colon carcinoma cell lines SW480 and HT29 were provided by Dr. Stan Hamilton, M.D. Anderson Cancer Center (Houston, Tex.); SW-480 and HT-29 cells were maintained in Dulbecco's modified Eagle's medium nutrient mixture with Ham's F-12 (DMEM/Ham's F-12; Sigma-Aldrich, St. Louis, Mo.) with phenol red supplemented with 0.22% sodium bicarbonate, 0.011% sodium pyruvate, and 5% fetal bovine serum and 10 ml/l 100× antibiotic antimycotic solution (Sigma-Aldrich). Cells were maintained at 37° C. in the presence of 5% CO2.
(§2) SW480 and HT 29 Cells (2×10^4) were plated in 12-well plates, and media were replaced the next day with DMEM/Ham's F-12 media containing 2.5% charcoal-stripped FBS and either vehicle (DMSO) or the indicated ligand and dissolved in DMSO. Fresh media and compounds were added every 48 h. Cells were counted at the indicated times using a Coulter Z1 cell counter. Each experiment was done in triplicate, and results are expressed as means±S.E. for each determination

[1] = test system: Panc28 pancreatic cancer cells; assay: Growth inhibition in Panc28 pancreatic cancer cells; format: cell-based; settings: Pancreatic cancer cell
HT-29 colon cancer cells = assay: Cell proliferation assay in HT-29 cells; format: cell-based; settings: Homo sapiens, read-out: IC50, growth inhibition / cell proliferation
Protocol: as §1, §2

PPARγ [2] = assay: PPARγ-GAL4/pGAL4 transfection and luciferase assay in SW480 cells; format: cell-based; settings: for PPARγ transactivation: up to 30 μM
Protocol: (§3) The Gal4 reporter containing 5× Gal4 response elements (pGal4) was kindly provided by Dr. Marty Mayo (University of North Carolina, Chapel Hill, N.C.). Gal4 DBD-PPARγ construct (gPPARγ) was a gift of Dr. Jennifer L. Oberfield (GlaxoSmithKline Research and Development, Research Triangle Park, N.C.). PPRE3-luc construct contains three tandem PPREs with a minimal TATA sequence in pGL2.
(§4) Colon Cancer cell lines SW480 and HT29 (1×10^5 cells/well) were plated in 12-well plates in DMEM/Ham's F-12 media supplemented with 2.5% charcoal-stripped FBS. After 16 h, various amounts of DNA [i.e., Gal4Luc (0.4 μg), β-Gal (0.04 μg), Gal4PPAR and PPRE3-Luc (0.04 μg)] were transfected using LipofectAMINE™ reagent (Invitrogen) following the manufacturer's protocol. Five hours after transfection, the transfection mix was replaced with complete media containing either vehicle (DMSO) or the indicated ligand for 20 to 22 h. Cells were then lysed with 100 μl of 1× reporter lysis buffer, and 30 μl of cell extract was used for luciferase and […] assays. A LumiCount™ luminometer (PerkinElmer Life and Analytical Sciences) was used to quantitate luciferase and β-Gal activities, and the luciferase activities were normalized to β-Gal activity. Results are expressed as means±S.E. for at least three replicate determinations for each treatment group

PPARγ [3] = assay: PPARγ-GAL4/pGAL4 transfection and luciferase assay in HT-29 cells; format: cell-based
Protocol: as §3, §4

PPARγ [4] = molecular target: T1, PPARγ (Homo sapiens, UniProt P37231); assay: PPRE3-Luc transfection and luciferase assay in SW480 cells; format: cell-based
T1 construct: endogenous in cells; host or cells: SW480 colon cancer cells
T1 sequence (P37231 1-505): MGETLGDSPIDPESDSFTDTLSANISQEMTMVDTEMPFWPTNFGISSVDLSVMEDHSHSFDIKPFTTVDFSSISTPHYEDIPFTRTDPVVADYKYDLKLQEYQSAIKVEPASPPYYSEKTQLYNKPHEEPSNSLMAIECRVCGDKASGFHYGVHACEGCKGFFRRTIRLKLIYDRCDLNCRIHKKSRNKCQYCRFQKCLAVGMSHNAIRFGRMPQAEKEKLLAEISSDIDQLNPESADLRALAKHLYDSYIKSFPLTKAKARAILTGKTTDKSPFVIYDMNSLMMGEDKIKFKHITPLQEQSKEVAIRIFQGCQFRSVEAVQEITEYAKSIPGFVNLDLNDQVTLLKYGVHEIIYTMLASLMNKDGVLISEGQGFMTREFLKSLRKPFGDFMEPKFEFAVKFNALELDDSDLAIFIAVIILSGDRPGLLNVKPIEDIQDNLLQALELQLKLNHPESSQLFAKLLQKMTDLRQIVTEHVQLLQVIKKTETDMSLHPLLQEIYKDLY
Protocol: as §3, §4

SW480 cells = assay: Western blot analysis in SW480 cells; format: cell-based, human
Protocol: SW-480 and HT-29 (3×10^5) cells were seeded in six-well plates in DMEM/Ham's F-12 media containing 2.5% charcoal-stripped FBS for 24 h and then treated with either the vehicle (DMSO) or the indicated compounds. Whole-cell lysates were obtained using high-salt buffer [50 mM HEPES, 500 mM NaCl, 1.5 mM MgCl2, 1 mM EGTA, 10% glycerol, and 1% Triton X-100, pH 7.5, and 5 μl/ml Protease Inhibitor Cocktail (Sigma-Aldrich)]. Protein samples were incubated at 100° C. for 2 min, separated on 10% SDS-PAGE at 120 V for 3 to 4 h in 1× running buffer (25 mM Tris-base, 192 mM glycine, and 0.1% SDS, pH 8.3), and transferred to polyvinylidene difluoride membrane (PVDF; Bio-Rad, Hercules, Calif.) at […] for 16 h at 4° C. in 1× transfer buffer (48 mM Tris-HCl, 39 mM glycine, and 0.025% SDS). The PVDF membrane was blocked in 5% TBST-Blotto (10 mM Tris-HCl, 150 mM NaCl, pH 8.0, 0.05% Triton X-100, and 5% nonfat dry milk) with gentle shaking for 30 min and was incubated in fresh 5% TBST-Blotto with 1:1000 (for caveolin-1, p27, p21, cyclin D1, Grp78), 1:500 (for KLF4, NAG-1), 1:250 (for PARP), and 1:5000 (for β-actin) primary antibody overnight with gentle shaking at 4° C. After washing with TBST for 10 min, the PVDF membrane was incubated with secondary antibody (1:5000) in 5% TBST-Blotto for 90 min. The membrane was washed with TBST for 10 min, incubated with 10 ml of chemiluminescence substrate (PerkinElmer) for 1.0 min, and exposed to Kodak X-OMAT AR autoradiography film (Eastman Kodak, Rochester, N.Y.).

[5] = test system: LNCaP human prostate carcinoma cells; assay: Cell proliferation assay in LNCaP cells; format: cell-based; settings: 96 hr, read-out: IC50, inhibition of LNCaP cell growth
Protocol: Cell lines: LNCaP human prostate carcinoma cells were obtained from American Type Culture Collection (Manassas, Va.). Fetal bovine serum was obtained from JRH Biosciences, Lenexa, Kans. LNCaP cells were maintained in RPMI 1640 (Sigma Chemical, St. Louis, Mo.) supplemented with 0.22% sodium bicarbonate, 0.011% sodium pyruvate, 0.45% glucose, 0.24% HEPES, 10% FBS, and 10 mL/L of 100× antibiotic/antimycotic solution (Sigma). Cells were maintained at 37° C. in the presence of 5% CO2.
Cell Proliferation and DNA Fragmentation Assays: LNCaP prostate cancer cells (2×10^4 per well) were added to 12-well plates and allowed to attach for 24 hr. The medium was then changed to DMEM/Ham's F-12 media containing 2.5% charcoal-stripped FBS, and either vehicle (DMSO) or the indicated C-DIMs were added. Fresh medium and indicated compounds were added every 48 hr, and cells were then trypsinized and counted after 2, 4, and 6 days using a Coulter Z1 cell counter (Beckman Coulter, Fullerton, Calif.). Each experiment was done in triplicate, and results are expressed as means±S.E. for each set of three experiments. The DNA fragmentation assay was performed using a BioVision Apoptotic DNA ladder extraction kit (BioVision, Mountain View, Calif.) according to the manufacturer's protocol.

PPARγ [6] = settings: SW480 cells, previous studies (22); cited from earlier work
PPARγ [7] = assay: PPARγ-GAL4/GAL4-Luc or PPRE3-Luc transactivation in LNCaP cells; format: cell-based; settings: 1-5 μM
Source text: Transfections: The Gal4 reporter construct containing 5× Gal4 response elements (pGal4) was kindly provided by Dr. Marty Mayo (University of North Carolina, Chapel Hill, N.C.). The Gal4 DBD-PPARγ construct was a gift of Dr. Jennifer L. Oberfield (Glaxo Wellcome Research and Development, Research Triangle Park, N.C.). The PPRE-luc construct contains three tandem PPREs with a minimal TATA sequence linked to the luciferase gene in pGL2. The AR-luc construct containing the −5400 to +580 region of the androgen receptor promoter was provided by Dr. Donald J. Tindall (Mayo Clinic, Rochester, Minn.), and the PSA-luc construct containing the 5.8-kilobase region of the PSA promoter was provided by Dr. Hong-Wu Cheng (University of California, Davis, Calif.). LNCaP cells (1×10^5) were seeded in 12-well plates in DMEM/Ham's F-12 media supplemented with 2.5% charcoal-stripped FBS and grown overnight. Transient transfections were performed using Lipofectamine reagent (Invitrogen) according to the protocol provided by the manufacturer. Transfection studies were performed using 0.4 μg of Gal4Luc, 0.04 μg of β-galactosidase, 0.04 μg of Gal4 DBD-PPARγ, 0.4 μg of AR-luc, and 0.3 μg of PSA-luc. Six hr after transfection, the transfection mix was replaced with complete media containing either vehicle (DMSO) or the indicated ligand for 20 to 22 hr. Cells were then lysed with 100 μl of 1× reporter lysis buffer, and 30 μl of cell extract was used for luciferase and β-galactosidase assays. A Lumicount luminometer (PerkinElmer Life and Analytical Sciences) was used to quantify luciferase and β-galactosidase activities, and the luciferase activities were normalized to β-galactosidase activity.

Row | Molecule | IC50 (SW480 colon cancer cells) [µM] | IC50 (HT-29 colon cancer cells) [µM] | melting point [°C] | PPARγ transactivation (GAL4-PPARγ/GAL4-Luc) (PPARγ [3]) | PPARγ transactivation (PPARγ [2]) | IC50 [5] [µM] | PPARγ-dependent transactivation (luciferase activity) (PPARγ [7]) | other results
1 | CC1(C)CC[C@]2(C(=O)O)CC[C@]3(C)[C@H](C(=O)C=C4[C@@]5(C)C=C(C#N)C(=O)C(C)(C)[C@@H]5CC[C@]43C)[C@@H]2C1 [CDDO, 2-cyano-3,12-dioxo-oleana-1, 9(11)-diene-28-oic acid, reference compound] |  |  |  |  |  |  |  | caveolin-1 protein expression (SW480 cells; SW480, treatment for 3 days): induce caveolin-1 protein; luciferase activity with GAL4-PPARγ/GAL4-Luc (PPARγ [6]): induced luciferase activity
2 | COC(=O)[C@@]1(C)CC[C@]2(C)CC[C@]3(C)C(=CC(=O)[C@@H]4[C@@]5(C)C=CC(=O)C(C)(C)[C@@H]5CC[C@]43C)[C@@H]2C1 [β-DODA-Me, Methyl 3,11-dioxo-18β-oleana-1,12-dien-30-oate] | 10 | 5 to 10 | 192 to 194 | minimal activity | did not enhance transactivation | 10 to 15 | did not activate PPARγ | 
3 | Methyl 2-iodo-3,11-dioxo-18β-oleana-1,12-diene-30-oate [β-IDODA-Me] |  |  |  |  |  |  | did not activate PPARγ | 

Second part, led by results:

Row | IC50 (SW480 colon cancer cells) [µM] | IC50 (HT-29 colon cancer cells) [µM] | melting point [°C] | Molecule | PPARγ transactivation (GAL4-PPARγ/GAL4-Luc) (PPARγ [3]) | PPARγ transactivation (PPARγ [2]) | IC50 [5] [µM] | PPARγ-dependent transactivation (luciferase activity) (PPARγ [7]) | other results
4 | 0.5 |  |  | COC(=O)[C@@]1(C)CC[C@]2(C)CC[C@]3(C)C(=CC(=O)[C@@H]4[C@@]5(C)C=C(C#N)C(=O)C(C)(C)[C@@H]5CC[C@]43C)[C@H]2C1 [α-CDODA-Me, Methyl 2-cyano-3,11-dioxo-18α-oleana-1,12-dien-30-oate] |  |  |  |  | IC50 [1]: 0.5 to 1 µM
5 | 2.5 to 5 | 1 | 195 to 197 | CC1(C)C(=O)C(C#N)=C[C@]2(C)[C@H]3C(=O)C=C4[C@@H]5C[C@@](C)(C(=O)O)CC[C@]5(C)CC[C@@]4(C)[C@]3(C)CC[C@@H]12 [β-CDODA, 2-cyano-3,11-dioxo-18β-oleana-1,12-dien-30-oic acid] | induced transactivation |  |  |  | induced luciferase activity after cotreatment with PPARγ antagonist T007 (PPARγ [2]; 1.0, 2.5, 5.0 β-CDODA-Me or 10, 20, 30 μM β-CDODA, 10 μM T007): inhibited; increase in luciferase activity (PPARγ activation) (PPARγ [2]; 20-30 μM): < 4.5 fold; transactivation of PPRE3-Luc (PPARγ [4]): induced transactivation; PPRE3-Luc transactivation after cotreatment with PPARγ antagonists T007 and GW9662 (PPARγ [4]; 10 μM antagonist): inhibited; concentration at which KLF4 is induced (SW480 cells; SW480, 24 hr): 10 to 20 µM; PARP cleavage (SW480 cells; SW480, 24 hr, 10-40 μM): observed
6 | 25 | 20 to 30 | 270 to 275 | CC1(C)C(=O)C=C[C@]2(C)[C@H]3C(=O)C=C4[C@@H]5C[C@@](C)(C(=O)O)CC[C@]5(C)CC[C@@]4(C)[C@]3(C)CC[C@@H]12 [β-DODA, 3,11-Dioxo-18β-oleana-1,12-dien-30-oic acid] | minimal activity | did not enhance transactivation | > 15 |  | 
